Values joined by “and” are separate entries in the source; they are usually repeats but may differ in a detail not shown here. Equal entries are not always repeated.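 Method: 48-hour compound exposure of cells in 96-well plates, five concentrations, linear interpolation of endpoints. GI50: concentration for 50% inhibition of growth. TGI denotes the concentration required for complete inhibition of growth.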
Legend:
Experiment in all cases: NCI anticancer screen, dose series, 48 h
HL-60(TB) leukemia = system: HL-60(TB) leukemia
IGROV1 ovarian = system: IGROV1 ovarian
LOX IMVI melanoma = system: LOX IMVI melanoma
SK-MEL-28 melanoma = system: SK-MEL-28 melanoma
SNB-19 CNS = system: SNB-19 CNS
SR leukemia = system: SR leukemia
NCI-H522 lung = system: NCI-H522 lung
A498 renal = system: A498 renal
DU-145 prostate = system: DU-145 prostate
MDA-MB-435 = system: MDA-MB-435

Structure (SMILES) | GI50 (HL-60(TB) leukemia) [µM] | TGI (HL-60(TB) leukemia) [µM] | GI50 (IGROV1 ovarian) [µM] | TGI (IGROV1 ovarian) [µM] | GI50 (LOX IMVI melanoma) [µM] | TGI (LOX IMVI melanoma) [µM] | GI50 (SK-MEL-28 melanoma) [µM] | TGI (SK-MEL-28 melanoma) [µM] | GI50 (SNB-19 CNS) [µM] | TGI (SNB-19 CNS) [µM] | GI50 (SR leukemia) [µM] | TGI (SR leukemia) [µM] | TGI (NCI-H522 lung) [µM] | TGI (A498 renal) | GI50 (DU-145 prostate) | TGI (DU-145 prostate) | GI50 (MDA-MB-435) [µM] | TGI (MDA-MB-435) [µM] | GI50 (NCI-H522 lung) [µM] | GI50 (A498 renal)
N.N.N.N.N.NC(=O)c1nn[n-]n1.[Cl-].[Co+3] | > 100 | > 100 | > 100 | > 100 | > 100 | > 100 | > 100 | > 100 | > 100 | > 100 | > 100 | > 100 |  |  |  |  |  |  |  | 
COc1cc(Br)c(C=Nc2cccc3cc(OC)c(OC)cc23)cc1OC |  | 39.5 |  | > 100 |  | > 100 |  | > 100 |  | > 100 |  | > 100 | > 100 |  |  |  |  |  |  | 
O=C1CC(O)CC(=O)C1=C(O)CCCCCCCCCCc1ccccc1 (stereo not given) |  | 59.2 |  | > 100 |  | > 100 |  | > 100 |  | > 100 |  | > 100 | > 100 |  |  |  |  |  |  | 
O=C(O)CCN(CCCCN(CCC(=O)O)CCC(=O)O)CCC(=O)O |  | > 100 |  | > 100 |  | > 100 |  | > 100 |  |  |  |  | > 100 | > 100 µM |  |  |  |  |  | 
OC(Cc1ccncc1)C(Cl)(Cl)Cl (stereo not given) | 0.152 | 60.1 |  |  | > 100 | > 100 | > 100 | > 100 | > 100 | > 100 |  |  | > 100 |  | > 100 µM | > 100 µM | > 100 | > 100 | > 100 | 
COc1ccc(C23C(=O)c4ccccc4N2O[C@H]2C(=O)N(c4ccccc4)C(=O)[C@H]23)cc1 (stereo not given in full) |  | > 100 |  | > 100 |  | > 100 |  | > 100 |  | > 100 |  |  | 87.3 | > 100 µM |  |  |  |  |  | 
N.N.N.N.[Co+3].[N-]=[N+]=[N-].[N-]=[N+]=[N-].[N-]=[N+]=[N-] | 61.5 | > 100 | > 100 | > 100 | > 100 | > 100 | 47.1 | > 100 | > 100 | > 100 |  |  | > 100 | > 100 µM |  |  |  |  | 39.7 | > 100 µM
O=C1N(C2CCCCC2)CC12CCCCC2 |  | > 100 |  | > 100 |  | > 100 |  | > 100 |  | > 100 |  |  | > 100 | > 100 µM |  |  |  |  |  | 
Cc1nnn[n-]1.N.N.N.N.N.[Cl-].[Co+3] | > 100 | > 100 | 2.88 | 85 | > 100 | > 100 | > 100 | > 100 | > 100 | > 100 | > 100 | > 100 | > 100 | 72 µM |  |  |  |  | > 100 | 4.14 µM
CC[C@@H]1c2c(C#N)ncn2-c2cnc(Nc3ccc(C(=O)NC4CCN(C5CCN(CC6CC6)CC5)CC4)cc3OC)nc2N1C1CCCC1 | 0.0249 | 0.104 | 0.0358 | 1.36 | 0.0368 | 1.06 | 0.127 | 1.75 | 0.0668 | 2.05 | 0.0387 | 1.02 | 0.126 | 1.17 µM and 1.57 µM | 0.0235 µM and 0.0353 µM | 0.072 µM and 0.246 µM |  |  | 0.023 | 0.174 µM and 0.308 µM
CC1(C)O[C@H]2[C@H](O)C[C@](O)(CO)C[C@H]2O1 |  |  |  | > 100 |  |  |  | > 100 |  | > 100 |  | > 100 | > 100 |  |  |  |  |  |  | 
COC(=O)c1ccc(-c2nc3cc(Cl)c(Cl)cc3nc2C#N)cc1 |  |  | > 100 | > 100 | > 100 | > 100 | > 100 | > 100 | > 100 | > 100 |  |  | > 100 | > 100 µM | > 100 µM | > 100 µM | > 100 | > 100 | > 100 | > 100 µM
O=C(c1ccccc1)c1ccccc1-c1ccccc1 |  |  | 3.32 | > 100 | 5.96 | > 100 | 7.52 | > 100 | 5.45 | > 100 |  |  | 4.06 | 15.6 µM | 3.36 µM | 38.2 µM | 0.325 | 7.87 | 0.74 | 2.08 µM
COc1ccc2[nH]cc(-c3ccc(-c4c[nH]c5ccc(OC)cc45)s3)c2c1 | 1.59 | 6.27 | 8.72 | 51 | 2.2 | 5 | 12.6 | > 50.2 | 10.1 | 34.6 |  |  | 4.46 | 14.3 µM | 4.87 µM | 18.4 µM | 8.32 | > 41.4 | 1.56 | 3.58 µM
NC(=O)C(=O)N/N=C1\C(=O)N(c2ccc(Cl)cc2Cl)C(=O)C1C(=O)Nc1ccc(Cl)cc1Cl (stereo not given) |  | > 100 |  | > 100 |  | > 100 |  | > 100 |  | > 100 |  | > 100 | > 100 | > 100 µM |  |  |  |  |  | 
C[C@]12C[C@H](CCCCCCNCCOC(=O)NCCCc3ccc(N(CCCl)CCCl)cc3)C3=C4CCC(=O)C=C4CCC3C1CC[C@@H]2O (stereo not given in full) | 0.248 | 0.659 | 0.334 | 2.11 | 1.06 | 2.27 |  |  |  |  |  |  | 3.18 | 3.56 µM | 0.454 µM | 1.93 µM | 2.38 | 6.53 | 1.63 | 1.93 µM
O=[N+]([O-])c1ccc(C[P+](c2ccccc2)(c2ccccc2)c2ccccc2)cc1 |  | > 100 |  | > 100 |  | > 100 |  | > 100 |  | > 100 |  | > 100 | > 100 | > 100 µM |  |  |  |  |  | 
CC1(C)C2CCC13C(=O)C1OC3(C2)C2C(=O)c3cc4ccccc4cc3C(=O)C12 (stereo not given) | 4.89 | 26.7 |  |  |  |  | 8.36 | > 100 | 5.57 | 46.4 | 1.83 | 7.04 | > 100 |  |  |  | 8.58 | > 100 | 23.1 | 
